# Measured values taken from PubChem BioAssay AID1963985 (Molecular Pharmacology Branch, DTP, NCI, 2024).
# Values joined by “and” are separate entries in the source; they are usually repeats but may differ in a detail not shown here. Equal entries are not always repeated.
# System: 252836-082-R-J2-PDC tumor spheroids, viability
# Assay: Anticancer human tumor 252836-082-R-J2-PDC patient-derived head and neck squamous cell carcinoma cell line growth inhibition [PI3K]
# Conditions: spheroids with HUVEC and MSC; for viability, T/C: stronger effect = lower value
# In short: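 We assembled tumor spheroids that included a stromal compartment of HUVEC and MSCs, then exposed them to targeted agents alone and together with PI3K pathway inhibitors. Concentration series descended by half-log from clinically achievable Cmax levels. Viability served as the endpoint.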
# [1] = curve of first compound, second compound 0.0316 µM
# [2] = curve of first compound, second compound 0.1 µM
# [3] = curve of first compound, second compound 0.316 µM
# [4] = curve of first compound, second compound 1 µM
# [5] = second compound 0.0316 µM, first compound 0.0316 µM
# [6] = second compound 0.0316 µM, first compound 0.1 µM
# [7] = second compound 0.1 µM, first compound 0.0316 µM
# [8] = second compound 0.1 µM, first compound 0.1 µM
# [9] = second compound 0.316 µM, first compound 0.0316 µM
# [10] = second compound 0.316 µM, first compound 0.1 µM
# [11] = second compound 1 µM, first compound 0.0316 µM
# [12] = second compound 1 µM, first compound 0.1 µM
# 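Also: spheroids exposed to agents for seven days before readout.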
# 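For viability, T/C in this document: percent of vehicle DMSO control viability so 100% = untreated growth.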
structure (smiles),measurement,setting,value
Cn1ncc(Cl)c1-c1cc(C(=O)NC(CN)Cc2cccc(F)c2)sc1Cl (stereo not drawn) + COc1c(OCCCN2CCOCC2)ccc2c3n(c(=NC(=O)c4cnc(N)nc4)nc12)CCN3,IC50,"curve of first compound, second compound 0.00316 µM",781 nM
same,IC50,"curve of first compound, second compound 0.01 µM",416 nM
same,IC50,[1],376 nM
same,IC50,[2],< 31.6 nM
same,IC50,[3],< 31.6 nM
same,IC50,[4],< 31.6 nM
same,"viability, T/C","second compound 0.00316 µM, first compound 0.0316 µM",88.6%
same,"viability, T/C","second compound 0.00316 µM, first compound 0.1 µM",79.1%
same,"viability, T/C","second compound 0.00316 µM, first compound 0.316 µM",60.2%
same,"viability, T/C","second compound 0.00316 µM, first compound 1 µM",45.7%
same,"viability, T/C","second compound 0.00316 µM, first compound 3.16 µM",32.3%
same,"viability, T/C","second compound 0.00316 µM, first compound 10 µM",11.2%
same,"viability, T/C","second compound 0.01 µM, first compound 0.0316 µM",71.8%
same,"viability, T/C","second compound 0.01 µM, first compound 0.1 µM",67.8%
same,"viability, T/C","second compound 0.01 µM, first compound 0.316 µM",50.6%
same,"viability, T/C","second compound 0.01 µM, first compound 1 µM",40.1%
same,"viability, T/C","second compound 0.01 µM, first compound 3.16 µM",29%
same,"viability, T/C","second compound 0.01 µM, first compound 10 µM",18.4%
same,"viability, T/C",[5],59.1%
same,"viability, T/C",[6],68.6%
same,"viability, T/C","second compound 0.0316 µM, first compound 0.316 µM",50%
same,"viability, T/C","second compound 0.0316 µM, first compound 1 µM",34.5%
same,"viability, T/C","second compound 0.0316 µM, first compound 3.16 µM",23.1%
same,"viability, T/C","second compound 0.0316 µM, first compound 10 µM",11.7%
same,"viability, T/C",[7],40.8%
same,"viability, T/C",[8],36.4%
same,"viability, T/C","second compound 0.1 µM, first compound 0.316 µM",37%
same,"viability, T/C","second compound 0.1 µM, first compound 1 µM",26.4%
same,"viability, T/C","second compound 0.1 µM, first compound 3.16 µM",17.2%
same,"viability, T/C","second compound 0.1 µM, first compound 10 µM",9.98%
same,"viability, T/C",[9],21.1%
same,"viability, T/C",[10],13.9%
same,"viability, T/C","second compound 0.316 µM, first compound 0.316 µM",14.8%
same,"viability, T/C","second compound 0.316 µM, first compound 1 µM",14.2%
same,"viability, T/C","second compound 0.316 µM, first compound 3.16 µM",13%
same,"viability, T/C","second compound 0.316 µM, first compound 10 µM",7.08%
same,"viability, T/C",[11],4.42%
same,"viability, T/C",[12],4.98%
same,"viability, T/C","second compound 1 µM, first compound 0.316 µM",4.84%
same,"viability, T/C","second compound 1 µM, first compound 1 µM",6.71%
same,"viability, T/C","second compound 1 µM, first compound 3.16 µM",4.88%
same,"viability, T/C","second compound 1 µM, first compound 10 µM",1.6%
CC1(C)CCC(Nc2ncc(C(F)(F)F)c(-c3c[nH]c4c(P(C)(C)=O)c(C#N)ccc34)n2)CN1 (stereo not drawn),"viability, T/C",compound 0.0316 µM,30.1% [middle of 4 runs]
same,"viability, T/C",compound 0.1 µM,29.5% [middle of 4 runs]
same,"viability, T/C",compound 0.316 µM,35.8% [middle of 4 runs]
same,"viability, T/C",compound 1 µM,33% [middle of 4 runs]
same,"viability, T/C",compound 3.16 µM,32.1% [middle of 4 runs]
same,"viability, T/C",compound 10 µM,7.06% [middle of 4 runs]
same,IC50,curve of compound,< 31.6 nM
CC(=O)c1c(C)c2cnc(Nc3ccc(N4CCNCC4)cn3)nc2n(C2CCCC2)c1=O,"viability, T/C",compound 0.000316 µM,95.4% [middle of 4 runs]
same,"viability, T/C",compound 0.001 µM,95.7% [middle of 4 runs]
same,"viability, T/C",compound 0.00316 µM,93.9% and 100% (2×) and 83.1%
same,"viability, T/C",compound 0.01 µM,97.5% [middle of 4 runs]
same,"viability, T/C",compound 0.0316 µM,87.3% [middle of 4 runs]
same,"viability, T/C",compound 0.1 µM,95.2% [middle of 4 runs]
same,IC50,curve of compound,> 100 nM
Cn1ncnc1[C@H]1c2n[nH]c(=O)c3cc(F)cc(c23)N[C@@H]1c1ccc(F)cc1 + Cc1nc(NC(=O)N2CCCC2C(N)=O)sc1-c1ccnc(C(C)(C)C(F)(F)F)c1,IC50,[1],> 100 nM
same,IC50,[2],> 100 nM
same,IC50,[3],> 100 nM
same,IC50,[4],17.2 nM
same,IC50,"curve of first compound, second compound 3.16 µM",< 0.316 nM
same,IC50,"curve of first compound, second compound 10 µM",< 0.316 nM
same,"viability, T/C","second compound 0.0316 µM, first compound 0.000316 µM",88.5%
same,"viability, T/C","second compound 0.0316 µM, first compound 0.001 µM",94.1%
same,"viability, T/C","second compound 0.0316 µM, first compound 0.00316 µM",96.9%
same,"viability, T/C","second compound 0.0316 µM, first compound 0.01 µM",76.2%
same,"viability, T/C",[5],75.2%
same,"viability, T/C",[6],58.5%
same,"viability, T/C","second compound 0.1 µM, first compound 0.000316 µM",80.2%
same,"viability, T/C","second compound 0.1 µM, first compound 0.001 µM",71.3%
same,"viability, T/C","second compound 0.1 µM, first compound 0.00316 µM",83.4%
same,"viability, T/C","second compound 0.1 µM, first compound 0.01 µM",65.6%
same,"viability, T/C",[7],78.5%
same,"viability, T/C",[8],58.4%
same,"viability, T/C","second compound 0.316 µM, first compound 0.000316 µM",62.3%
same,"viability, T/C","second compound 0.316 µM, first compound 0.001 µM",70.8%
same,"viability, T/C","second compound 0.316 µM, first compound 0.00316 µM",66.6%
same,"viability, T/C","second compound 0.316 µM, first compound 0.01 µM",57.6%
same,"viability, T/C",[9],55.6%
same,"viability, T/C",[10],50.6%
same,"viability, T/C","second compound 1 µM, first compound 0.000316 µM",58.5%
same,"viability, T/C","second compound 1 µM, first compound 0.001 µM",59.2%
same,"viability, T/C","second compound 1 µM, first compound 0.00316 µM",53.9%
same,"viability, T/C","second compound 1 µM, first compound 0.01 µM",61.7%
same,"viability, T/C",[11],40.6%
same,"viability, T/C",[12],32.4%
same,"viability, T/C","second compound 3.16 µM, first compound 0.000316 µM",42.7%
same,"viability, T/C","second compound 3.16 µM, first compound 0.001 µM",48.8%
same,"viability, T/C","second compound 3.16 µM, first compound 0.00316 µM",39%
same,"viability, T/C","second compound 3.16 µM, first compound 0.01 µM",44.7%
same,"viability, T/C","second compound 3.16 µM, first compound 0.0316 µM",40.4%
same,"viability, T/C","second compound 3.16 µM, first compound 0.1 µM",23.4%
same,"viability, T/C","second compound 10 µM, first compound 0.000316 µM",31.8%
same,"viability, T/C","second compound 10 µM, first compound 0.001 µM",38.5%
same,"viability, T/C","second compound 10 µM, first compound 0.00316 µM",33.6%
same,"viability, T/C","second compound 10 µM, first compound 0.01 µM",26.5%
same,"viability, T/C","second compound 10 µM, first compound 0.0316 µM",21.9%
same,"viability, T/C","second compound 10 µM, first compound 0.1 µM",21.6%
